≈ marks a conversion by molar mass, not a printed value. Where “and” joins values, the source holds several entries; their conditions need not be identical. Identical values can stand only once.
Experiments:
B16-F0 (Mouse melanoma) = experiment: MTT test on B16-F0 cells; assay type: cell-based
Method: (§1) The in vitro anticancer activities of the synthesized compounds were conducted using different cancerous and non-cancerous cell lines viz B16-F0 (Mouse melanoma), mouse Ehrlich Ascites Carcinoma (EAC), MCF-7 (Human breast cancer), MCF-10A (Human breast epithelial cells), and NIH/3T3 (Mouse fibroblast cells). All cell lines were procured from the National Centre for Cell Science, Pune, India. The procured cells were cultured in a six-well culture plate with Dulbecco’s Modified Eagle’s Medium (DMEM) supplemented with 10% fetal bovine serum in a humid CO2 incubator with 5% carbon dioxide at 37 °C.
(§2) The anti-cancer effect and cytotoxicity of both 3-MBTSc and 4-NBTSc compounds were evaluated against different cancerous (MCF-7, EAC, B16-F0 cells) and noncancerous cells (MCF-10A, NIH-3T3 cells) using MTT test. In brief, the stock solutions of both the tested compounds were prepared by dissolving 1 mg of each compound in 1 mL of DMSO separately. Then, four different concentrations (5, 10, 12, and 20 µg/mL) of both compounds were used during the test along with the negative control. Also, 10 μg/mL of doxorubicin (Dox) was used as the positive control during the experiment. Both untreated and treated cells were incubated for next 24 and 48 h. Then, all the steps during the whole experiment were carried out by our earlier reported procedure. Later, the absorbance values were measured by an ELISA reader (Biorad, Hercules, CA, USA) at 570 nm wavelength using secondary wavelength as a reference at 620 nm and the percentages of cell viability was calculated using the following formula [59, 60, 61]. Cell viability (%)= Mean absorbance of treated cells/Mean absorbance of untreated cells × 100
(§3) Based on the cell viability data, the IC50 values of both compounds were calculated on different cancer cells by plotting their corresponding dose-responsive graphs.
(§4) The obtained data were statistically analyzed. The descriptive analysis was done and the IC50 values were calculated by fitting the sigmoidal dose responsive graph using GraphPad Prism (GraphPad Software, Inc., La Jolla, CA, USA). […]

[1] = system: gene expression in EAC cells; experiment: RT-qPCR gene expression in EAC cells; assay type: cell-based, mouse
Method: (§5) Total mRNA was isolated and extracted by Trizol reagent as described in an earlier method. RevertAid First Strand cDNA synthesis kit (Thermo Fisher Scientific, Waltham, MA, USA) was used to synthesize cDNA in a total reaction volume of 20 μL containing oligo-dT primers, RiboLock RNase inhibitor, and reverse transcriptase. Gene-specific primers were used to amplify cDNAs in RT-qPCR machine (Applied Biosystems, Waltham, MA, USA).

[2] = system: gene expression in MCF-7 human breast cancer cells; experiment: RT-qPCR gene expression in MCF-7 cells; assay type: cell-based
Method: as §5

[3] = system: mouse Ehrlich Ascites Carcinoma (EAC); experiment: MTT test on EAC cells; assay type: cell-based
Method: as §1, §2, §3, §4

[4] = system: gene expression in B16-F0 melanoma cells; experiment: RT-qPCR gene expression in B16-F0 cells; assay type: cell-based, Mouse
Method: as §5

[5] = EAC cells treated, GAPDH housekeeping gene
[6] = EAC cells, difference of RQ values
[7] = MCF-7 cells treated, GAPDH housekeeping gene
[8] = MCF-7 cells, difference of RQ values
[9] = B16-F0 cells treated, GAPDH housekeeping gene
[10] = B16-F0 cells, difference of RQ values

COc1cccc(C=NNC(N)=S)c1 [3-MBTSc, 3-Methoxybenzaldehyde thiosemicarbazone]
inhibition of cell growth (B16-F0 (Mouse melanoma); B16-F0 cell line, MTT assay): 50.42%
IC50 (B16-F0 (Mouse melanoma); Mus musculus, B16F0, B16-F0 cells, MTT, till 48 h): 2.904 ± 0.013 µg/mL (≈ 13.9 µM)
BCl2 Treated (RQ value) [1, 5]: 7.195 ± 0.021
BRCA1 Treated (RQ value) [1, 5]: 4.305 ± 0.021
Bax Treated (RQ value) [1, 5]: 5.195 ± 0.021
Caspase-3 Treated (RQ value) [1, 5]: 3.095 ± 0.035
Dmp1 Treated (RQ value) [1, 5]: 6.9 ± 0.028
Fos Treated (RQ value) [1, 5]: 4.22 ± 0.014
MTS 1 Treated (RQ value) [1, 5]: 1.1 ± 0.028
Mdm2 Treated (RQ value) [1, 5]: 4.145 ± 0.035
PKC Treated (RQ value) [1, 5]: 7.105 ± 0.021
PTEN Treated (RQ value) [1, 5]: 4.205 ± 0.035
RAS Treated (RQ value) [1, 5]: 3.215 ± 0.021
p19 Arf Treated (RQ value) [1, 5]: 4.73 ± 0.028
p21 Treated (RQ value) [1, 5]: 5.19 ± 0.028
pRB Treated (RQ value) [1, 5]: 3.575 ± 0.021
BCl2 Fold Change (EAC treated-EAC untreated) [1, 6]: 4.105 fold
BRCA1 Fold Change (EAC treated-EAC untreated) [1, 6]: 2.245 fold
Bax Fold Change (EAC treated-EAC untreated) [1, 6]: 2.145 fold
Caspase-3 Fold Change (EAC treated-EAC untreated) [1, 6]: 0.195 fold
Dmp1 Fold Change (EAC treated-EAC untreated) [1, 6]: 4.75 fold
Fos Fold Change (EAC treated-EAC untreated) [1, 6]: -3.92 fold
MTS 1 Fold Change (EAC treated-EAC untreated) [1, 6]: -0.805 fold
Mdm2 Fold Change (EAC treated-EAC untreated) [1, 6]: -1.06 fold
PKC Fold Change (EAC treated-EAC untreated) [1, 6]: -3.03 fold
PTEN Fold Change (EAC treated-EAC untreated) [1, 6]: 2.975 fold
RAS Fold Change (EAC treated-EAC untreated) [1, 6]: -3.725 fold
p19 Arf Fold Change (EAC treated-EAC untreated) [1, 6]: 1.98 fold
p21 Fold Change (EAC treated-EAC untreated) [1, 6]: 4.195 fold
p53 Fold Change (EAC treated-EAC untreated) [1, 6]: 2.1 fold
pRB Fold Change (EAC treated-EAC untreated) [1, 6]: 1.67 fold
BCl2 Treated (RQ value) [2, 7]: 2.375 ± 0.025
BRCA1 Treated (RQ value) [2, 7]: 7.13 ± 0.01
BRCA2 Treated (RQ value) [2, 7]: 1.235 ± 0.005
Bax Treated (RQ value) [2, 7]: 2.125 ± 0.025
Caspase-3 Treated (RQ value) [2, 7]: 2.13 ± 0.01
Dmp1 Treated (RQ value) [2, 7]: 2.1 ± 0.03
ER Treated (RQ value) [2, 7]: 3.15 ± 0.03
Hdm2 Treated (RQ value) [2, 7]: 5.26 ± 0.045
Myc Treated (RQ value) [2, 7]: 3.43 ± 0.015
PKC Treated (RQ value) [2, 7]: 5.455 ± 0.015
PR Treated (RQ value) [2, 7]: 1.23 ± 0.02
PTEN Treated (RQ value) [2, 7]: 3.78 ± 0.02
RAS Treated (RQ value) [2, 7]: 3.905 ± 0.035
p19 Arf Treated (RQ value) [2, 7]: 4.575 ± 0.055
p21 Treated (RQ value) [2, 7]: 3.125 ± 0.025
p53 Treated (RQ value) [2, 7]: 5.185 ± 0.015
pRB Treated (RQ value) [2, 7]: 3.11 ± 0.01
BCl2 Fold Change (MCF 7 treated-MCF 7 untreated) [2, 8]: 0.285 fold
BRCA1 Fold Change (MCF 7 treated-MCF 7 untreated) [2, 8]: 5.33 fold
BRCA2 Fold Change (MCF 7 treated-MCF 7 untreated) [2, 8]: -0.7 fold
Bax Fold Change (MCF 7 treated-MCF 7 untreated) [2, 8]: 1.4 fold
Caspase-3 Fold Change (MCF 7 treated-MCF 7 untreated) [2, 8]: 1.53 fold
Hdm2 Fold Change (MCF 7 treated-MCF 7 untreated) [2, 8]: -1.98 fold
Myc Fold Change (MCF 7 treated-MCF 7 untreated) [2, 8]: -4.02 fold
PKC Fold Change (MCF 7 treated-MCF 7 untreated) [2, 8]: -7.64 fold
PR Fold Change (MCF 7 treated-MCF 7 untreated) [2, 8]: 0.035 fold
PTEN Fold Change (MCF 7 treated-MCF 7 untreated) [2, 8]: 1.635 fold
RAS Fold Change (MCF 7 treated-MCF 7 untreated) [2, 8]: −5.92 fold
p19 Arf Fold Change (MCF 7 treated-MCF 7 untreated) [2, 8]: 3.24 fold
p21 Fold Change (MCF 7 treated-MCF 7 untreated) [2, 8]: 0.935 fold
p53 Fold Change (MCF 7 treated-MCF 7 untreated) [2, 8]: 3.025 fold
pRB Fold Change (MCF 7 treated-MCF 7 untreated) [2, 8]: 1.51 fold
inhibition of cell growth ([3]; EAC cell line, MTT assay): 50.31%
IC50 ([3]; Mus musculus, Ehrlich, EAC cells, MTT, till 48 h): 3.355 ± 0.012 µg/mL (≈ 16 µM)
BCl2 Treated (RQ value) [4, 9]: 2.14 ± 0.028
BRCA1 Treated (RQ value) [4, 9]: 1.14 ± 0.028
Bax Treated (RQ value) [4, 9]: 3.095 ± 0.021
Caspase-3 Treated (RQ value) [4, 9]: 6.105 ± 0.021
Dmp1 Treated (RQ value) [4, 9]: 5.19 ± 0.028
Fos Treated (RQ value) [4, 9]: 3.135 ± 0.021
MTS 1 Treated (RQ value) [4, 9]: 6.14 ± 0.042
Mdm2 Treated (RQ value) [4, 9]: 5.105 ± 0.021
PKC Treated (RQ value) [4, 9]: 5.13 ± 0.028
PTEN Treated (RQ value) [4, 9]: 4.94 ± 0.028
RAS Treated (RQ value) [4, 9]: 4.16 ± 0.028
p19 Arf Treated (RQ value) [4, 9]: 5.125 ± 0.021
p21 Treated (RQ value) [4, 9]: 5.115 ± 0.021
p53 Treated (RQ value) [4, 9]: 5.185 ± 0.035
pRB Treated (RQ value) [4, 9]: 1.105 ± 0.007
BCl2 Fold Change (B16-F0 treated-B16-F0 untreated) [4, 10]: 0.050 fold
BRCA1 Fold Change (B16-F0 treated-B16-F0 untreated) [4, 10]: -0.660 fold
Bax Fold Change (B16-F0 treated-B16-F0 untreated) [4, 10]: 0.360 fold
Caspase-3 Fold Change (B16-F0 treated-B16-F0 untreated) [4, 10]: 3.505 fold and 3.50 fold
Dmp1 Fold Change (B16-F0 treated-B16-F0 untreated) [4, 10]: 2.700 fold
MTS 1 Fold Change (B16-F0 treated-B16-F0 untreated) [4, 10]: 4.205 fold
Mdm2 Fold Change (B16-F0 treated-B16-F0 untreated) [4, 10]: -2.135 fold
PTEN Fold Change (B16-F0 treated-B16-F0 untreated) [4, 10]: 2.795 fold
p19 Arf Fold Change (B16-F0 treated-B16-F0 untreated) [4, 10]: 3.790 fold
p21 Fold Change (B16-F0 treated-B16-F0 untreated) [4, 10]: 2.925 fold
p53 Fold Change (B16-F0 treated-B16-F0 untreated) [4, 10]: 3.025 fold
pRB Fold Change (B16-F0 treated-B16-F0 untreated) [4, 10]: -0.495 fold

Reference: paper PMC8533299, “Synthesis, In Silico Study, and Anti-Cancer Activity of Thiosemicarbazone Derivatives” (Biomedicines, 2021)
